Test results as given in patent US20240228489A1, “POSITIVE ALLOSTERIC MODULATORS OF THE MUSCARINIC ACETYLCHOLINE RECEPTOR M1” (Vanderbilt University, priority 2021, published 2024).

Experiments:
[1] = molecular target: T1, human mAChR M1 (Homo sapiens, UniProt P11229); assay: mAChR M1 cell-based functional assay (calcium mobilization), PAM mode: increase in the EC20 acetylcholine response
T1 sequence (P11229 1-460): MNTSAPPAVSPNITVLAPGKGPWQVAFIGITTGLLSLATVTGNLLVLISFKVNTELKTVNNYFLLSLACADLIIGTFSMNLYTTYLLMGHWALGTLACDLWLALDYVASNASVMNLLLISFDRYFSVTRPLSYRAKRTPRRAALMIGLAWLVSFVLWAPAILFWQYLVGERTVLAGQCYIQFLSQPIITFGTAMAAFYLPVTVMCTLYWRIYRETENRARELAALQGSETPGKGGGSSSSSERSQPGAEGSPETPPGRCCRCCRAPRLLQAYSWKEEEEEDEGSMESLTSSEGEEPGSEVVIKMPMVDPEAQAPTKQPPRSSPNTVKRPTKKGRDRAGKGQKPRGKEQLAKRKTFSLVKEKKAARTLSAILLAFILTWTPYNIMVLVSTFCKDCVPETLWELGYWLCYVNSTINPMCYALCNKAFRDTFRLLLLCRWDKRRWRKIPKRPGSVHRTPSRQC
Procedure, shortened: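 CHO-K1 cells stably expressing hM1, Fluo-4 loaded, read by FDSS calcium flux at 1 Hz. Compound (11-point 1:3 CRC) added at 4 s, EC20 acetylcholine at 144 s, EC80 at 230 s. PAM activity taken as concentration-dependent increase in EC20 ACh response, fitted by four-parameter logistic for EC50/Emax.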

[2] = molecular target: T1, human mAChR M1; assay: mAChR M1 cell-based functional assay (calcium mobilization), agonist mode: compound alone, Emax relative to acetylcholine maximum; settings: for Agonist Activity Human M1 EC50 / EC50: human mAChR M1; for Emax: relative to the maximum for acetylcholine
Procedure, shortened: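 CHO-K1 cells stably expressing hM1 were loaded with Fluo-4 AM, and calcium flux was read as fluorescence ratio. Compound was added alone from an 11-point 1:3 curve, and the agonist response was fitted with a four-parameter logistic. Emax is expressed relative to the acetylcholine maximum.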

| SMILES | EC50 [1] | Emax [1] | Agonist Activity Human M1 EC50 [2] | Emax [2] | EC50 [2] |
| --- | --- | --- | --- | --- | --- |
| [2H]C1([2H])c2ncccc2C(=O)N1Cc1c(F)cc(-c2ccc(C(F)(F)F)c3nn(C([2H])([2H])[2H])cc23)cc1F [Compound 74, 6-(2,6-difluoro-4-(2-(methyl-d3)-7-(trifluoromethyl)-2H-indazol-4-yl)benzyl)-6,7-dihydro-5H-pyrrolo[3,4-b]pyridin-5-one-7,7-d2] | 0.592 µM | 81% | Inactive | 1% | – |
| [2H]C1([2H])c2ncccc2C(=O)N1Cc1c(F)cc(-c2ccc(C)c3nn(C)cc23)cc1Cl [Compound 162, 6-(2-chloro-4-(2,7-dimethyl-2H-indazol-4-yl)-6-fluorobenzyl)-6,7-dihydro-5H-pyrrolo[3,4-b]pyridin-5-one-7,7-d2] | 0.435 µM | 81% | Inactive | 2% | – |
| [2H]C1([2H])c2ncccc2C(=O)N1Cc1c(C)cc(-c2ccc(OC3CC3)c3nn(C)cc23)cc1F [Compound 196, 6-(4-(7-cyclopropoxy-2-methyl-2H-indazol-4-yl)-2-fluoro-6-methylbenzyl)-6,7-dihydro-5H-pyrrolo[3,4-b]pyridin-5-one-7,7-d2] | 0.437 µM | 83% | – | 43% | 8.68 µM |
| [2H]C1([2H])c2ncccc2C(=O)N1Cc1c(C)cc(-c2cccc3nn(C([2H])([2H])[2H])cc23)cc1F (single isomer, unassigned) [Compound 156, 6-(2-Fluoro-6-methyl-4-(2-(methyl-d3)-2H-indazol-4-yl)benzyl)-6,7-dihydro-5H-pyrrolo[3,4-b]pyridin-5-one-7,7-d2] | 0.194 µM | 85% | – | 33% | 8.16 µM |
| [2H]C1([2H])c2ncccc2C(=O)N1Cc1c(F)cc(-c2ccnc3nn(C)cc23)cc1OCC(C)C [Compound 217, 6-(2-fluoro-6-isobutoxy-4-(2-methyl-2H-pyrazolo[3,4-b]pyridin-4-yl)benzyl)-6,7-dihydro-5H-pyrrolo[3,4-b]pyridin-5-one-7,7-d2] | 0.207 µM | 78% | – | 23% | 2.86 µM |
| [2H]C1([2H])c2ncccc2C(=O)N1Cc1ccc(-c2cc(F)cc3nn(C)cc23)cc1 [Compound 72, 6-(4-(6-fluoro-2-methyl-2H-indazol-4-yl)benzyl)-6,7-dihydro-5H-pyrrolo[3,4-b]pyridin-5-one-7,7-d2] | 0.472 µM | 75% | Inactive | 4% | – |
| [2H]C1([2H])c2ncc(O)cc2C(=O)N1Cc1c(F)cc(-c2cccc3nn(C)cc23)cc1F [Compound 62, 6-(2,6-Difluoro-4-(2-methyl-2H-indazol-4-yl)benzyl)-3-hydroxy-6,7-dihydro-5H-pyrrolo[3,4-b]pyridin-5-one-7,7-d2] | 0.108 µM | 67% | – | 57% | 4.34 µM |
| [2H]C1([2H])c2ncccc2C(=O)N1Cc1ccc(-c2ccc(OC)c3nn(C([2H])([2H])[2H])cc23)cc1C [Compound 57, 6-(4-(7-methoxy-2-(methyl-d3)-2H-indazol-4-yl)-2-methylbenzyl)-6,7-dihydro-5H-pyrrolo[3,4-b]pyridin-5-one-7,7-d2] | 0.288 µM | 87% | Inactive | 4% | – |
| [2H]C1([2H])c2ncccc2C(=O)N1Cc1c(F)cc(-c2cccc3nn(C([2H])([2H])[2H])cc23)cc1Cl [Compound 161, 6-(2-chloro-6-fluoro-4-(2-(methyl-d3)-2H-indazol-4-yl)benzyl)-6,7-dihydro-5H-pyrrolo[3,4-b]pyridin-5-one-7,7-d2] | 0.353 µM | 81% | Inactive | 6% | – |
| [2H]C1([2H])c2ncccc2C(=O)N1Cc1ccc(-c2ccc3c(cnn3C)c2)cc1F [Compound 10, 6-(2-fluoro-4-(1-methyl-1H-indazol-5-yl)benzyl)-6,7-dihydro-5H-pyrrolo[3,4-b]pyridin-5-one-7,7-d2] | 1.46 µM | 62% | Inactive | 4% | – |
| [2H]C1([2H])c2ncccc2C(=O)N1Cc1c(F)cc(-c2ccn3ccnc3c2)cc1F [Compound 5, 6-(2,6-difluoro-4-(imidazo[1,2-a]pyridin-7-yl)benzyl)-6,7-dihydro-5H-pyrrolo[3,4-b]pyridin-5-one-7,7-d2] | 0.977 µM | 40% | Inactive | 2% | – |

More lines, now with the values ahead:

| EC50 [1] | Emax [1] | Agonist Activity Human M1 EC50 [2] | Emax [2] | EC50 [2] | SMILES |
| --- | --- | --- | --- | --- | --- |
| > 10 µM | 27% | Inactive | 3% | – | [2H]c1nnc2cccc(-c3ccc(CN4C(=O)c5cccnc5C4([2H])[2H])cc3)n12 [Compound 240, 6-(4-([1,2,4]triazolo[4,3-a]pyridin-5-yl-3-d)benzyl)-6,7-dihydro-5H-pyrrolo[3,4-b]pyridin-5-one-7,7-d2] |
| 0.626 µM | 55% | Inactive | 1% | – | [2H]C1([2H])c2ncccc2C(=O)N1Cc1c(F)cc(-c2cc(Cl)cc3nn(C)cc23)cc1F [Compound 75, 6-(4-(6-chloro-2-methyl-2H-indazol-4-yl)-2,6-difluorobenzyl)-6,7-dihydro-5H-pyrrolo[3,4-b]pyridin-5-one-7,7-d2] |
| 2.3 µM | 64% | Inactive | 3% | – | [2H]C1([2H])c2ncccc2C(=O)N1Cc1c(F)cc(-c2c(F)ccc3nn(C)cc23)cc1F [Compound 37, 6-(2,6-difluoro-4-(5-fluoro-2-methyl-2H-indazol-4-yl)benzyl)-6,7-dihydro-5H-pyrrolo[3,4-b]pyridin-5-one-7,7-d2] |
| 0.244 µM | 80% | – | 19% | 6.23 µM | [2H]C([2H])([2H])Oc1cnc2c(c1)C(=O)N(Cc1ccc(-c3cccc4nn(C)cc34)cc1)C2([2H])[2H] [Compound 83, 3-(methoxy-d3)-6-(4-(2-methyl-2H-indazol-4-yl)benzyl)-6,7-dihydro-5H-pyrrolo[3,4-b]pyridin-5-one-7,7-d2] |
| 1.37 µM | 58% | Inactive | 3% | – | [2H]C1([2H])c2ncccc2C(=O)N1Cc1c(F)cc(-c2cccc3nn(C)cc23)cc1C(F)(F)F [Compound 225, 6-(2-fluoro-4-(2-methyl-2H-indazol-4-yl)-6-(trifluoromethyl)benzyl)-6,7-dihydro-5H-pyrrolo[3,4-b]pyridin-5-one-7,7-d2] |
| 0.131 µM | 76% | – | 21% | 3.3 µM | [2H]C([2H])([2H])Oc1ccc(-c2cc(F)c(CN3C(=O)c4cccnc4C3([2H])[2H])c(F)c2)c2cn(C)nc12 [Compound 93, 6-(2,6-difluoro-4-(7-(methoxy-d3)-2-methyl-2H-indazol-4-yl)benzyl)-6,7-dihydro-5H-pyrrolo[3,4-b]pyridin-5-one-7,7-d2] |
| 0.193 µM | 86% | – | 26% | 8.12 µM | [2H]C1([2H])c2ncccc2C(=O)N1Cc1c(F)cc(-c2ccc(OCC3(C#N)CC3)c3nn(C)cc23)cc1F [Compound 174, 1-(((4-(3,5-difluoro-4-((5-oxo-5,7-dihydro-6H-pyrrolo[3,4-b]pyridin-6-yl-7,7-d2)methyl)phenyl)-2-methyl-2H-indazol-7-yl)oxy)methyl)cyclopropane-1-carbonitrile] |
